Key:
[1] = Pharmacokinetic study of misoprostol acid (MPA) plasma levels after SR oral, sublingual or vaginal misoprostol; type: in vivo, women; conditions: 400 μg
Method: A study was performed with healthy women ≧18 years with a viable intrauterine pregnancy of up to 12 weeks (47-83 days) of gestation who had requested termination of pregnancy by vacuum aspiration.
After giving their informed consent, eligible women were allocated randomly to the three treatment groups using computer generated random tables and numbered, sealed, opaque envelopes opened consecutively. […] The SR misoprostol tablets were swallowed with a small amount of water. Women allocated to vaginal misoprostol treatment inserted the tablets intravaginally themselves.
The women were admitted to hospital in the morning after fasting overnight.
The blood samples were immediately cooled in a refrigerator at +6° C. for 30-60 minutes and thereafter centrifuged in a cooled centrifuge for 10 minutes at 3000 rpm. The plasma was then drawn from the blood samples and stored at below −20° C. for further analyses. […]
AUC was calculated according to the trapezoidal method, by dividing the area under the curve into trapezium segments according to the time intervals of blood sampling. […] The AUC720 was calculated by summation of the trapezium segments. Pulse, blood pressure and temperature were measured repeatedly and side-effects such as nausea, abdominal pain, skin rash or diarrhoea were recorded, as well as any analgesics given. […]

[2] = cited from earlier work

- cumulative AUC of MPA over time (FIG. 2) ([1]; sublingual group): did not continue to rise after 6 hours
- cumulative AUC of MPA over time (FIG. 2) ([1]; vaginal group): did not continue to rise after 6 hours
SMILES: CCCCC(C)(O)C/C=C/[C@H]1[C@H](O)CC(=O)[C@@H]1CCCCCCC(=O)OC (mixture of isomers) [misoprostol, (±) methyl 7-[3-(α-hydroxy-2-β-(4(RS)-4-hydroxy-4-methyl-trans-1-octen-1-yl)-oxycyclopent-1α-yl]heptanoate]
- time at which plasma misoprostol level peaks ([2]; 400 μg oral misoprostol): about 30 minutes
- time after administration with detectable levels of MPA remaining ([2]; vaginal administration): 6 h
- time to maximum plasma level ([2]; vaginal administration): 70 to 80 min

— patent US20100197642A1, “SLOW RELEASE MISOPROSTOL FOR OBSTETRIC AND/OR GYNAECOLOGICAL APPLICATIONS” (priority 2007, published 2010)
